Data set [1] can be described thus: Measurement of transmittances of aqueous draw solute solutions according to temperature variation (UV/IR spectrometer). It counts as physicochemical. How it is done: For this observation, the transmittances of aqueous solutions of the draw solutes were measured using a UV/IR spectrometer.
Data set [2] can be described thus: Measurement of flows and fluxes of water in forward osmosis through cellulose acetate semi-permeable membrane (brine vs draw solution).
Method: Referring to FIG. 11, the system has a structure in which glass tubes are arranged to face each other through a semi-permeable membrane. Unpurified water is arranged in one of the glass tubes and a draw solution is arranged in the other glass tube. After the glass tubes are placed in a temperature-controllable water bath, water desalination and purification experiments are conducted. Specifically, the experiments using LCST draw solutes are carried out in the order of low temperature (homogeneous phase) and high temperature (phase transition). The experiments using UCST draw solutes are carried out in the order of high temperature (homogeneous phase) and low temperature (phase transition). As the semi-permeable membrane, a cellulose acetate semi-permeable membrane is used. Specifically, the semi-permeable membrane includes a support layer composed of a polyester fiber coated with polyethylene and a dense layer composed of a cellulose triacetate fiber. The semi-permeable membrane is characterized by the ability to remove 95% or more of salts and low-molecular-weight materials.
Forward osmosis experiments were conducted at laboratory level using the thermo-responsive draw solutes synthesized above. The fluxes and directivities of water at low/high temperatures were confirmed with varying concentrations of brines and the draw solutions.
A stirrer was installed to maintain a uniform state of the solution in each glass tube and a thermostatic bath was installed for temperature control. After the temperature was maintained constant, the flux of water was measured. The amount of water flowing through the membrane was expressed in volume per unit area of the membrane and unit time (L/m^2h, LMH). The fluxes and directivities of water at low and high temperatures were measured at time points of each experiment. For better visual observation, a slight amount of dye was added to the system.
The nature of data set [3]: Verification of reproducibility of forward osmosis experiments (repeated low/high temperature cycles). The conditions noted are these: 2.0 M nBu-DETA, positive = flow from brine to nBu-DETA solution. The text has this:
A draw solute for a forward osmosis process should be able to be continuously reused after the process. […] FIG. 26 is a graph showing changes in the flux of water during repeated experiments using 2.0 M nBu-DETA.
In a conventional process using ammonium carbonate/ammonium hydroxide, recondensation is required to reuse recovered ammonia and carbon dioxide molecules. In contrast, in the three repeated cycles of forward osmosis using nBu-DETA as a draw solute, any special process for dissolution except stirring was not carried out but the solute having undergone a phase transition were dissolved when hot water was exchanged with cold water in the thermostatic bath. As a result, similar levels of fluxes were obtained, which can be seen from FIG. 26 and Table 9.

Where [4] appears, read: aqueous solution of LCST draw solute at temperatures lower than the reference temperature.
Where [5] appears, read: aqueous solution of UCST draw solute at temperatures equal to or higher than the reference temperature.

As to `CCCCCCOCCOCCO` [DEH], the Transmittance in data set [1] (setting [4]) is 100%. Besides, the “Flux (LMH)” value stood at 1.6422 LMH in data set [2] (2 M DEH, 0.025 M NaCl, 40 (+0.5)° C., flow direction DEH→NaCl); 1.1 LMH in data set [2] (2 M DEH, 0.05 M NaCl, 40 (+0.5)° C., DEH→NaCl); 0.71 LMH in data set [2] (2 M DEH, 0.1 M NaCl, 40 (+0.5)° C., DEH→NaCl); 0.36 LMH in data set [2] (2 M DEH, 0.15 M NaCl, 40 (+0.5)° C., DEH→NaCl); 0.29 LMH in data set [2] (4.0 M DEH, 0.60 M NaCl, 18 (±0.5)° C., flow direction NaCl→DEH).
Consider `OCCOc1ccccc1` [EGPE], for which the Transmittance in data set [1] (setting [5]) stood at 100%. The “Flux of water from EGPE to NaCl” value in data set [2] (6.4 M EGPE, 0.15 M brine, 5° C. (phase transition)) is recorded as 0.036 LMH. The “Flux of water from NaCl to EGPE” value in data set [2] (6.4 M EGPE, 0.3 M brine, 50° C.) was determined as 0.14 LMH.
Take `CC(C)C(=O)O` [IBA]: in data set [1] (setting [5]), the Transmittance is reported as 100%.
On to `CC(C)C(N)=O` [IBAm], for which the Transmittance in data set [1] (setting [5]) is 100%.
For the compound `CCCCNC(=O)CC` [N-BPA], the Transmittance in data set [1] (setting [4]) is given as 100%.
As for `CCCCCOCC(C)O` (stereo not drawn) [PNP], the Transmittance in data set [1] (setting [4]) is on record as 100%.
On the same count and under the same terms, as for `CCCCC(=O)NCCCN(C)CCCNC(=O)CCCC` [Val-DAPMA], the figure is 100%; as for `CCCCC(=O)NCCN(CC)CC` [Val-DEEA], 100%; as for `CCN(CC)CCNC(=O)C(C)C` [iBu-DEEA], 100%.
Same read-out and setting: as for `CCCC(=O)NCCCN(C)CCCNC(=O)CCC` [nBu-DAPMA], the figure is 100%.
For `CCCC(=O)NCCN(CCNC(=O)CCC)C(=O)CCC` [nBu-DETA], the Transmittance in data set [1] (setting [4]) was found to be 100%. Besides, the “Flux (L/m^2h)” value was 0.61 L/m^2h in data set [3] (18° C., 1 Cycle); 0.71 L/m^2h in data set [3] (18° C., 2 Cycle); 0.71 L/m^2h in data set [3] (18° C., 3 Cycle); −0.64 L/m^2h in data set [3] (70° C., 1 Cycle); −0.79 L/m^2h in data set [3] (70° C., 2 Cycle); −0.61 L/m^2h in data set [3] (70° C., 3 Cycle). For the same compound, the Flux of water in data set [2] (0.5M nBu-DETA draw solution, 0.050M NaCl, 18 (±0.5)° C., flow direction NaCl→nBu-DETA) is listed as 1.3 LMH; in data set [2] (0.5M nBu-DETA, 0.10M NaCl, 18 (±0.5)° C., NaCl→nBu-DETA), 0.90 LMH; in data set [2] (0.5M nBu-DETA, 0.15M NaCl, 18 (±0.5)° C., NaCl→nBu-DETA), 0.52 LMH; in data set [2] (1.0M nBu-DETA, 0.10M NaCl, 18 (±0.5)° C., NaCl→nBu-DETA) it was 1.5 LMH; in data set [2] (1.0M nBu-DETA, 0.15M NaCl, 70 (±0.5)° C., nBu-DETA→NaCl), 0.93 LMH; in data set [2] (1.0M nBu-DETA, 0.20M NaCl, 18 (±0.5)° C., NaCl→nBu-DETA) it was 0.77 LMH. Further, the Flux of water is recorded as 0.96 LMH in data set [2] (1.0M nBu-DETA, 0.2M NaCl, 70 (±0.5)° C., nBu-DETA→NaCl); 0.52 LMH in data set [2] (1.0M nBu-DETA, 0.30M NaCl, 18 (±0.5)° C., NaCl→nBu-DETA); 1.4 LMH in data set [2] (1.0M nBu-DETA, 0.35M NaCl, 70 (±0.5)° C., nBu-DETA→NaCl); 1.8 LMH in data set [2] (1.0M nBu-DETA, 0.5M NaCl, 70 (±0.5)° C., nBu-DETA→NaCl); 1.2 LMH in data set [2] (1.6M nBu-DETA, 0.15M NaCl, 70 (±0.5)° C., nBu-DETA→NaCl); 1.2 LMH in data set [2] (1.6M nBu-DETA, 0.25M NaCl, 70 (±0.5)° C., nBu-DETA→NaCl). In addition, the Flux of water in data set [2] (1.6M nBu-DETA, 0.35M NaCl, 70 (±0.5)° C., nBu-DETA→NaCl) is on record as 1.3 LMH; in data set [2] (1.6M nBu-DETA, 0.5M NaCl, 70 (±0.5)° C., nBu-DETA→NaCl), 1.2 LMH; in data set [2] (2.0M nBu-DETA, 0.05M NaCl, 70 (±0.5)° C., flow direction nBu-DETA→NaCl), −0.071 LMH; in data set [2] (2.0M nBu-DETA, 0.1M NaCl, 70 (±0.5)° C., nBu-DETA→NaCl), 0.36 LMH; in data set [2] (2.0M nBu-DETA, 0.15M NaCl, 70 (±0.5)° C., nBu-DETA→NaCl), 0.75 LMH; in data set [2] (2.0M nBu-DETA, 0.20M NaCl, 18 (±0.5)° C., NaCl→nBu-DETA), 1.7 LMH. The Flux of water turned out to be 0.96 LMH in data set [2] (2.0M nBu-DETA, 0.25M NaCl, 70 (±0.5)° C., nBu-DETA→NaCl); 1.2 LMH in data set [2] (2.0M nBu-DETA, 0.35M NaCl, 70 (±0.5)° C., nBu-DETA→NaCl); 0.65 LMH in data set [2] (2.0M nBu-DETA, 0.40M NaCl, 18 (±0.5)° C., NaCl→nBu-DETA); 1.4 LMH in data set [2] (2.0M nBu-DETA, 0.5M NaCl, 70 (±0.5)° C., nBu-DETA→NaCl); 0.26 LMH in data set [2] (2.0M nBu-DETA, 0.60M NaCl, 18 (±0.5)° C., NaCl→nBu-DETA).
In the case of `CCCC(=O)NCCN(C(C)C)C(C)C` [nBu-DIPA], in data set [1] (setting [4]), the Transmittance was 100%.

The values are drawn from US9550728B2, “Thermo-responsive draw solute for forward osmosis and method for water desalination and purification using the same” (SEOUL NATIONAL UNIVERSITY R&DB FOUNDATION, priority 2011, dated 2017).
